Measurements as given in PMC7253423, “Quassinoid analogs with enhanced efficacy for treatment of hematologic malignancies target the PI3Kγ isoform” (Communications Biology, 2020).
Values joined by “and” are separate entries in the source; they are usually repeats but may differ in a detail not shown here. Equal entries are not always repeated. Where two headings read alike, the source gives them in different places.

Tests used:
[1] = In vivo toxicity test, survival rate; design: species or system NOD/SCID mice; details: for survival event status per mouse (Fig 6i; 1 = event/death, 0 = censored): 10mg/kg
Protocol: The survival rate was recorded to monitor the tolerance of the compounds in these mice.

[2] = Cytotoxicity, cell viability assay in normal cells; format: cell-based; details: human, fraction of 0 μM control; for viability at 0.000244141 μM: Con. 0.000244141 μM; for viability at 0.015625 μM: Con. 0.015625 μM; for viability at 0.0625 μM: Con. 0.0625 μM; for viability at 1 μM: Con. 1 μM
Text: Human peripheral blood mononuclear cells (PBMCs), normal T-cells and B-cells were provided by the University of Pennsylvania Human Immunology Core (HIC), and Patient-derived xenografts (PDXs) were obtained from Fox Chase Cancer Center (FCCC). These samples were from different unidentified and healthy donors with written, informed consent. All the procedures were approved by the Institutional Review Board (IRB) and conducted according to the declarations of Helsinki protocols.
(§1) 5000 cells as indicated were cultured in 96-well plate with 100 μl of media. […] After treatment, the cells were incubated with 100 μl buffer for 10 min at room temperature following the instructions of CellTiter-Glo kit (Promega, Madison, WI). Luminescence was detected using a multi-mode reader Cytation 5 (BioTek, Winooski, VT). […] Two independent experiments done in duplicates were performed.

[3] = system: SU-DHL-4 cells; test: Western blot of PI3K/AKT signaling proteins; format: cell-based, human; details: SU-DHL-4, 0, 50 nM, 100 nM; 0, 12 h, 24 h
Protocol: (§2) Western blot analyses were performed as previously described. Briefly, total cell lysates were separated by SDS-PAGE gel and transferred to nitrocellulose membrane. The membranes were blocked with 5% non-fat milk, probed with specific antibodies, and visualized using the Odyssey scanner (LiCor Inc., Lincoln, NE).

[4] = system: HL-60 cells; test: Western blot of PI3K/AKT signaling proteins; format: cell-based, human; details: HL-60, 0, 50 nM, 100 nM; 0, 12 h, 24 h
Protocol: as §2

[5] = system: LCL1 cells; test: Real-time PCR, mRNA expression; format: cell-based, human
Protocol: (§3) Real-time PCR experiments were performed as previously described. The experiments were performed in triplicate.

[6] = system: Raji cells; test: Real-time PCR, mRNA expression; format: cell-based, human
Protocol: as §3

[7] = system: LCL1 cells; test: RNA-Seq and Ingenuity Pathway Analysis (upstream regulator analysis); format: cell-based, human
Protocol: The cDNA library was prepared with the commercial Illumina library preparation kits (TruSeq Stranded RNA LT Ribo-Zero H/M/R Kit) according to the manufacturer’s protocols and sequenced with an Illumina HiSeq2000 instrument (Washington University Genome Sequencing Center). Quality check was performed on the raw RNA-Seq reads (FastQC, https://www.bioinformatics.babraham.ac.uk/projects/fastqc/), and the adapters were cut (Trim Galore, https://www.bioinformatics.babraham.ac.uk/projects/trim_galore/) and mapped with hg38 genome (HISAT2)[64]. Differentially expressed transcripts were defined with Cuffdiff tools[65] and visualized using R software (https://www.r-project.org/). Signaling pathway analysis was conducted with the Ingenuity Pathway Analysis program (QIAGEN Inc., https://www.qiagenbioinformatics.com/products/ingenuitypathway-analysis)[27].

[8] = system: PIK3CG knock-out Raji cells; test: Western blot of PI3K/AKT associated proteins in knock-out cells; format: cell-based, human; details: 100 nM, 72 h
Protocol: as §2
Oligos were obtained from Integrated DNA Technologies (IDT; Coralville, IA, USA) and cloned into the lentiviral vector lentiCRISPR v2 (Addgene #52961)[66]. Lentivirus production and transduction have been described previously. Here, Raji cells were transduced with a lentivirus harboring lentiCRISPR v2 vector or a construct containing the guide sequence ([…]) against PIK3CG gene. At 48 h post-transduction, cells were selected with puromycin and harvested to determine PIK3CG expression with western blot.

[9] = system: K562 cells; test: Cell viability assay (CellTiter-Glo luminescence); format: cell-based, human; details: K562, 100nM, 72 hours
Protocol: as §1

[10] = system: LCL1 cells; test: Cell viability assay (CellTiter-Glo luminescence); format: cell-based, human; details: 72 h, duplicates
Protocol: After treatment, the cells were incubated with 100 μl buffer for 10 min at room temperature following the instructions of CellTiter-Glo kit (Promega, Madison, WI). Luminescence was detected using a multi-mode reader Cytation 5 (BioTek, Winooski, VT). […] Two independent experiments done in duplicates were performed.

[11] = system: PDX-255 (Burkitt's lymphoma); test: Cell viability assay in patient-derived xenograft cells; format: cell-based, human; details: PDX-255, different concentrations, 72 h
Protocol: (§4) 5000 cells as indicated were cultured in 96-well plate with 100 μl of media. On the next day, Brusatol or associated analogs were added once to the cells without media change. After treatment, the cells were incubated with 100 μl buffer for 10 min at room temperature following the instructions of CellTiter-Glo kit (Promega, Madison, WI). Luminescence was detected using a multi-mode reader Cytation 5 (BioTek, Winooski, VT). […] Two independent experiments done in duplicates were performed.

[12] = system: PDX-223 (Diffuse large B cell lymphoma); test: as above; format: cell-based, human; details: PDX-223, different concentrations, 72 h
Protocol: as §4

[13] = system: PDX-129 (B-cell Follicular lymphoma); test: as above; format: cell-based, human; details: PDX-129, different concentrations, 72 h
Protocol: as §4

[14] = B-cells, read-out: relative cell viability (Fig 6c), replicates
[15] = T-cells, read-out: relative cell viability (Fig 6b), replicates
[16] = Brusatol-treated LCL1 cells, RNA-Seq, IPA

For `COC(=O)C12OCC34C(CC5C(C)=C(OC(=O)CNC(=O)OC(C)(C)C)C(=O)CC5(C)C3C(O)C1O)OC(=O)C(OC(=O)C=C(C)C)C24` (stereo not shown) [#15], the “toxicity in vivo (survival)” value ([1]; 10 mg/kg intraperitoneally every other day, monitored 24 days, 4 mice per group) was “obviously lethal for the majority of mice within the first 4 days”, the “survival event status per mouse (Fig 6i; 1 = event/death, 0 = censored)” value ([1]; Days Post-treatment 2) was 1 and the “survival event status per mouse (Fig 6i; 1 = event/death, 0 = censored)” value ([1]; Days Post-treatment 3) was 1. For the same molecule, the “survival event status per mouse (Fig 6i; 1 = event/death, 0 = censored)” value ([1]; Days Post-treatment 4) was 1, the viability at 0.000244141 μM [2, 14] was 80.4% and the viability at 0.00390625 μM ([2]; B-cells, Con. 0.00390625 μM, read-out: relative cell viability (Fig 6c), replicates) was 96.8%. It also gave a viability at 0.015625 μM [2, 14] of 100%, a viability at 0.0625 μM [2, 14] of 89.1% and a viability at 1 μM [2, 14] of 91.6%. It also gave a viability at 0.000244141 μM [2, 15] of 101%, a viability at 0.015625 μM [2, 15] of 83.4% and a viability at 0.0625 μM [2, 15] of 82.3%. It also gave a viability at 1 μM [2, 15] of 83.3%.
In the case of Brusatol, the “protein expression of AKT1, GSK3, and mTOR” value [3] is reported as “substantially reduced”, the “protein expression of AKT1, GSK3, and mTOR” value [4] is reported as “minimally affected” and the “mRNA levels of AKT1, ATF3, PIK3CG, and PIK3C2B” value [5] is reported as “downregulated”. For the same molecule, the “mRNA levels of AKT1, ATF3, PIK3CG, and PIK3C2B” value [6] was “downregulated”, the “Expr Other, upstream regulator ALDH1A2” value [7, 16] was -1.404 and the “Expr Other, upstream regulator ARRB2” value [7, 16] was -0.306. For the same molecule, the “Expr Other, upstream regulator CBX5” value [7, 16] was -1.126, the “Expr Other, upstream regulator CD22” value [7, 16] was 2.89 and the “Expr Other, upstream regulator CDC73” value [7, 16] was -0.568. For the same molecule, the “Expr Other, upstream regulator CYLD” value [7, 16] was -1.473, the “Expr Other, upstream regulator DICER1” value [7, 16] was 1.146 and the “Expr Other, upstream regulator DNAJB6” value [7, 16] was 0.673. The “Expr Other, upstream regulator FKBP4” value [7, 16] was 0.61, the “Expr Other, upstream regulator GMNN” value [7, 16] was -1.679 and the “Expr Other, upstream regulator GRN” value [7, 16] was 0.925. For the same molecule, the “Expr Other, upstream regulator IFNGR1” value [7, 16] was 0.304, the “Expr Other, upstream regulator KMT2D” value [7, 16] was -0.912 and the “Expr Other, upstream regulator NONO” value [7, 16] was 1.295. The “Expr Other, upstream regulator PAX8” value [7, 16] was 1.9, the “Expr Other, upstream regulator PTPRJ” value [7, 16] was -1.699 and the “Expr Other, upstream regulator RARRES3” value [7, 16] was 2.648. The “Expr Other, upstream regulator SOD2” value [7, 16] was 1.251, the “Expr Other, upstream regulator UPF2” value [7, 16] was -0.435 and the “Expr Other, upstream regulator WDR5” value [7, 16] was 0.395. For the same molecule, the “Expr Other, upstream regulator ZC3H12A” value [7, 16] was -1.316, the “CTNNA1 transcript (RNA-Seq)” value ([7]; LCL1, 72 h) was “dramatically downregulated” and the “SLC22A1 transcript (RNA-Seq)” value ([7]; LCL1, 72 h) was “highly upregulated”. For the same molecule, the AKT1 level [8] was “no obvious decrease”, the killing ([9]; experiment of Fig 3a) was “more than 90%” and the killing ([9]; independent experiment of Fig 3b) was “approximately 50%”. For the same molecule, the “Cell viability (luminescence)” value ([10]; LCL1, cell number 0, 100 nM) was 0.8054 and 1.195, the “Cell viability (luminescence)” value ([10]; LCL1, cell number 625, 100 nM) was 1.142 and 1.405 and the “Cell viability (luminescence)” value ([10]; LCL1, cell number 1250, 100 nM) was 2.424 and 2.078. The “Cell viability (luminescence)” value ([10]; LCL1, cell number 2500, 100 nM) was 3.232 and 2.818, the “Cell viability (luminescence)” value ([10]; LCL1, cell number 5000, 100 nM) was 3.613 and 2.736 and the “Cell viability (luminescence)” value ([10]; LCL1, cell number 10000, 100 nM) was 4.594 and 3.987. The “inhibition of cell viability” value [11] was “inhibited”, the “inhibition of cell viability” value [12] was “inhibited” and the “inhibition of cell viability” value [13] was “inhibited”.
